Assay results: patent US5332733A, “Heterocyclically substituted piperazinoakylbenzoxazine and piperazinoalkylbenzothiazine compounds, processes for preparing them, and medicaments containing them” (Kali-Chemie Pharma GmbH, priority 1990, dated 1994)
Where two headings read alike, the source gives them in different places.

Tests used:
[1] = test system: histamine-induced anaphylactoid cutaneous reaction; assay: Inhibition of histamine-induced anaphylactoid cutaneous reaction in rats; format: in vivo, Sprague-Dawley rats; settings: Rattus norvegicus, 1 h, 2 × 10^-5 mole/kg per os, one hour before ovalbumin challenge
Protocol: (§1) 1. Determining Inhibition of Passive Cutaneous Anaphylaxis (PCA) and Histamine-Induced Anaphylactoid Cutaneous Reaction
(§2) The inhibition of the passive cutaneous anaphylaxis and of the anaphylactoid cutaneous reaction induced by histamine was determined as follows:
(§3) Sprague-Dawley rats having a body weight of 150-180 g were injected intradermally in one flank with 50 μl of a 1:75 dilution of the IgE-rich ovalbumin antiserum in physiological saline solution to passively sensitize them to ovalbumin.
(§4) 24 hours after sensitization a solution of 8.25 mg/kg of ovalbumin and 26.4 mg/kg of a blue dye (Evans's Blue) was administered to the rats intravenously according to Martin et al. to trigger passive cutaneous anaphylaxis.
To determine the histamine-induced anaphylactoid skin reaction, the animals are injected intradermally in the flank opposite to the antiserum administration with 50 μl of a physiological saline solution containing 0.8 mg/ml histamine directly before the intravenous injection of the solution containing the ovalbumin and the blue dye.
(§5) On the day of the experiment the test substances were dissolved in distilled water which contained 1 vol. % dimethylformamide and 1 vol. % of Tween™ 20 (=polyoxyethylene (20) sorbitan monolaurate). One hour before administration of the ovalbumin challenge, each animal was orally administered 2×10^-5 mole/kg of test substance in 0.5 ml of solution. For comparison purposes a control group received only the solvent.
(§6) The edematous anaphylactic (PCA) and anaphylactoid (histamine-induced) reactions caused by the stimulation of the intravenous ovalbumin injection, which manifested themselves by edema formation, swelling and exudation of blue dye, were evaluated 30 minutes after their initiation by the intravenous ovalbumin injection. This was done by visually determining the extent to which the blue dye emerged at the sites of edema formation. The percentage inhibition of anaphylactic and anaphylactoid reactions induced by the test substances in comparison with the reactions of the control animals not treated with any test substance was determined using comparison scales.
(§7) The results obtained using compounds of formula I according to the foregoing test methods are shown in the following Table A. The example numbers given for the compounds of formula I relate to the subsequent preparative examples.

mice = settings: mouse, in vivo, 1440 min
Protocol: 2. Determination of Minimum Toxic Dose
Maximum doses of 300 mg/kg of the test substance were administered orally to male mice weighing 20-25 g. The animals were observed carefully for 3 hours for toxicity symptoms. In addition, all symptoms and deaths were recorded over a period of 24 hours after administration. Associated symptoms were also observed and recorded. If death or severe toxic symptoms were observed, additional mice were administered increasingly lower doses. The lowest dose which produced death or severe toxic symptoms is given in the following Table B as the minimum toxic dose.

[2] = test system: passive cutaneous anaphylaxis (PCA); assay: Inhibition of passive cutaneous anaphylaxis (PCA) in rats; format: in vivo, Sprague-Dawley rats; settings: Rattus norvegicus, 1 h, 2 × 10^-5 mole/kg per os, one hour before ovalbumin challenge
Protocol: as §1
The PCA reaction is carried out following the methods described by Goose et al. (J. N. Immunology 16 (1969), 749) and by Martin et al. (Arch. Pharmacol. 316 (1981), 186).
The IgE-rich ovalbumin antiserum used in the test was obtained from immunized Brown-Norway rats. The were immunized with an intraperitoneal injection of a mixture of 100 μg of ovalbumin with a Bordetella pertussis suspension (Vaxicoq™, Manufactured by Institute Merieux, containing 5×10^9 organisms and 1.25 mg Al(OH)3). After 20 days the animals were re-immunized with a further intraperitoneal injection of a solution of 10 μg ovalbumin in 0.5 ml physiological saline solution. After a further four days the blood was removed from the animals and centrifuged. The resulting antiserum was stored at -20° C. until use.
as §2, §3, §4, §5, §6, §7

histamine-(H1)-receptor = target: T1, histamine-(H1)-receptor (Cavia porcellus, UniProt P31389); assay: Histamine-(H1)-receptor antagonism in vitro, histamine-induced contractions of isolated ileum; format: cell-based, guinea pig (Dunkin Hartley); settings: test substance 10^-6 mole/l, histamine 5 × 10^-6 mole/l
T1 construct: Segments of the ileum 1.5 cm long from Dunkin Hartley guinea pigs; from tissue; host or cells: isolated ileum of Dunkin Hartley guinea pigs
T1 sequence (P31389 whole entry): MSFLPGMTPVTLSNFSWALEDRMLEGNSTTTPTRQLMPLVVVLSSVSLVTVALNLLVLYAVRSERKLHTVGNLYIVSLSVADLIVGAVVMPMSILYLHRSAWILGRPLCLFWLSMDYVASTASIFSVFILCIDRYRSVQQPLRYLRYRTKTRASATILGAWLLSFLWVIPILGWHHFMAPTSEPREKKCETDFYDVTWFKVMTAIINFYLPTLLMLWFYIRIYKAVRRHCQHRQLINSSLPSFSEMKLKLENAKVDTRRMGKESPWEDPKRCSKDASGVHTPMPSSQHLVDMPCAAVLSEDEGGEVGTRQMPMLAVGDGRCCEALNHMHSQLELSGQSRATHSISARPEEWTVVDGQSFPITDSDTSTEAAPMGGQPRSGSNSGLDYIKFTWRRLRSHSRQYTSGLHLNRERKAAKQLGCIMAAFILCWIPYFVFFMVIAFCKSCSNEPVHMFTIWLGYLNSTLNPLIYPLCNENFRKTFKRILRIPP
Protocol: 3. Investigation of Anti-Histamine-(H1) Effect Based on Histamine-(H1)-Receptor Antagonism In Vitro
To investigate the histamine-(H1)-receptor antagonism of the test substances, the inhibiting effect of the substances on histamine-induced contractions of the smooth muscle was determined in vitro on the isolated organ. Isolated strips of organ from the ileum are suitable for this purpose. In an organ bath of physiological saline solution the smooth muscle strips react to the addition of histamine by contracting. […] The extent of regression of the contraction is an indication of the anti-histamine-(H1) activity of the compounds. The investigation was carried out analogously to the method originally described by Magnus (Pfluegers Arch. 102, 123 (1904)).
Procedure for determining the smooth muscle contraction inhibiting effect on isolated guinea pig ileum induced by a 5×10^-6 molar histamine concentration
Segments of the ileum 1.5 cm long from Dunkin Hartley guinea pigs having a body weight of 300 500 g were used for the test. Each strip was placed in an organ bath of 10 ml of physiological saline solution according to Krebs-Henseleit and attached to a conventional apparatus for isotonic measurement of changes in length of the ileum strips (automated Celaster measuring apparatus), so that the tissue was under 1 g of tension. The bath was kept at a pH of 7.4 and gassed with a mixture of 5% CO2 and 95% O2. After an equilibration phase, an isotonic contraction of the tissue was induced by adding histamine in a final concentration of 5×10^-6 mole/liter and washing it out again after a contact time of 30 seconds. Only tissues samples from which three reproducible contractions were obtained at 10 minute intervals were used in the subsequent test. The test substances were then added in a final concentration of 10^-6 mole/liter, and after 30 seconds contact time histamine was again added up to a concentration of 5×10^-6 mole/liter. The resulting contractions were measured over 30 seconds. The tissue was then washed several times over a period of 10 minutes. Histamine was then added again to stimulate a contraction. The resulting contractions were again measured over 30 seconds. The difference between the amplitude of the contraction obtained by histamine addition alone and the amplitude of the contraction obtained in the presence of the test substance was determined and expressed in terms of % inhibition.
The inhibiting effects on the contractions induced by histamine 30 seconds after administration of the test substance and on the contractions induced by the addition of histamine 10 minutes later are listed in the table.

[3] = 0.5 min, after 30 seconds, read-out: % inhibition of histamine-induced ileum contractions after 30 seconds
[4] = 10 min, after 10 minutes (after washing), read-out: % inhibition of histamine-induced ileum contractions after 10 minutes

Structure (SMILES) | inhibition in vivo at 20 µmol/kg [1] | Minimum toxic dose (mice) | inhibition in vivo at 20 µmol/kg [2] | inhibition at 1 µM (histamine-(H1)-receptor; [3]) | inhibition at 1 µM (histamine-(H1)-receptor; [4])
Cc1ccnc(N2CCN(CCCC3Sc4ccccc4NC3=S)CC2)c1 (stereo not shown) [Example 11] | 20% | > 300 mg/kg | 55% | 32% | 35%
O=C1Nc2ccccc2SC1CCCN1CCN(c2ccc(Cl)cn2)CC1 (stereo not shown) [Example 15] | 30% | – | 60% | – | –
Cc1ccnc(N2CCN(CCCCC3Oc4ccccc4NC3=O)CC2)c1 (stereo not shown) [Example 7] | 40% | – | 70% | 85% | 74%
Cc1ccnc(N2CCN(CCCC3Sc4ccccc4NC3=O)CC2)c1 (stereo not shown) [Example 8] | 60% | 100 mg/kg | 73% | 42% | 5%
Cc1ccnc(N2CCN(CCCC3Oc4ccccc4NC3=O)CC2)c1 (stereo not shown) [Example 9] | 30% | 300 mg/kg | 60% | – | –
Cc1ccnc(N2CCN(CCCCC3Sc4ccccc4NC3=O)CC2)c1 (stereo not shown) [Example 1, 2-{4-[4-(4-methylpyridin-2-yl)-piperazin-1-yl]butyl}-2H-1,4-benzothiazine-3(4H)-one] | 55% | 300 mg/kg | 88% | – | –
